According to patent publication US20060149100A1, “Process for separating and recovering 3-hydroxypropionic acid and acrylic acid” (priority 2003, published 2006):

Legend:
[1] = Extraction of acrylic acid and 3-hydroxypropionic acid from aqueous stock solutions using various extractants; settings: 22° C.; for Partition Coefficient, D 3HP / Partition Coefficient, D AA: extractant phase/aqueous phase
Text: In this Example, there were utilized five (5) aqueous stock solutions. The aqueous stock solutions comprise 3-hydroxypropionic acid and acrylic acid. In each of the five aqueous stock solutions, the concentration of 3-hydroxypropionic acid is approximately two times higher than the concentration of the acrylic acid.
In carrying out the following extractions of 3-hydroxypropionic acid and acrylic acid from aqueous stock solutions comprising 3-hydroxypropionic acid and acrylic acid, the following organic extractants were used: • a. Decanol • b. Methyl isobutyl ketone (MiBK) • c. Isopropyl ether • d. Methyl acrylate • e. Methyl propionate • f. Methylene chloride (CH2Cl2) • g. Toluene • h. Isopropyl acetate • i. Ethyl acetate • j. 50/50 wt % Tributyl phosphate (TBP) and ISOPAR-K isoparaffinic hydrocarbon available from Exxon Mobil Corporation The extraction procedure utilized in the Examples herein for separating and recovering 3-hydroxypropionic acid and acrylic acid from aqueous solutions comprising 3-hydroxypropionic acid and acrylic acid is set forth below.
1. To a 15 ml centrifuge tube 5 ml of an acid stock solution and an extractant were added. Masses of the empty centrifuge tube, the aqueous solution and extractant were recorded.
2. The tube was placed on a platform shaker and the contents in the tube were mixed at 230 rpm for 30 minutes at 22° C. (rpm designates revolutions per minute).
3. At the end of mixing, the tube was centrifuged at 4500 rpm for 5 minutes.
4. The volumes of the aqueous and extractant phases in the tube were recorded.
5. The aqueous phase was separated from the extractant phase and the masses of both phases were recorded.
6. The acrylic acid and the 3-hydroxypropionic acid in the aqueous solution were analyzed by HPLC.
7. The concentrations of acrylic acid and 3-hydroxypropionic acid in the organic extractant were calculated by subtracting the concentrations of acrylic acid and 3-hydroxypropionic acid in the aqueous phase from the initial concentration in the stock solution.

[2] = Distillation of organic extractant from acrylic acid solution in the presence of water; format: physicochemical; settings: distillation at about 100 mm Hg, room temperature; 18.5 g isopropyl ether, 3 g acrylic acid, 9 g water
Description: In this Example, there is shown the process for separating and recovering acrylic acid from a solution comprising acrylic acid and an organic extractant that has a boiling point lower than 100° C. The process involves distillation of the solution, in the presence of water, to distill the organic extractant having a boiling point lower than 100° C., resulting in an aqueous acrylic acid solution.
More particularly, 18.5 grams of isopropyl ether, 3 grams of acrylic acid, and 9 grams of distilled water were introduced into a 100 ml round bottom flask. The organic extractant, isopropyl ether, that has a boiling point of 68° C. at ambient temperature, was then distilled from the solution. The distillation of the isopropyl ether organic extractant, was achieved by applying to the flask, containing the solution of acrylic acid, organic extractant and water, a reduced pressure of about 100 mm Hg, at room temperature (about 20-24° C.). The distillation was completed in about 5 minutes. The resulting isopropyl ether distillate that was collected, and the remaining aqueous solution in the flask, were weighed, and the concentration of acrylic acid in both the isopropyl ether distillate and in the aqueous solution, were determined by means of titration. The amount of acrylic acid that remained in the flask as the aqueous solution was 91%. […]

[3] = Aqueous Stock Solution No. 1 (0.67 wt % AA, 1.34 wt % 3HP)
[4] = Aqueous Stock Solution No. 5 (12.51 wt % AA, 25.05 wt % 3HP)
[5] = Aqueous Stock Solution No. 2 (3.33 wt % AA, 6.67 wt % 3HP)
[6] = Aqueous Stock Solution No. 3 (6.67 wt % AA, 13.34 wt % 3HP)
[7] = Aqueous Stock Solution No. 4 (9.99 wt % AA, 19.98 wt % 3HP)

| Acid in Extractant Phase, wt % 3HP [1, 3] | Separation Factor, S AA/3HP [1, 3] | SMILES | Acid in Aqueous Phase, wt % 3HP [1, 3] | Acid in Aqueous Phase, wt % AA [1, 3] | Acid in Extractant Phase, wt % AA [1, 3] | Acid in Aqueous Phase, wt % 3HP [1, 4] | Acid in Aqueous Phase, wt % AA [1, 4] | Acid in Extractant Phase, wt % 3HP [1, 4] | Acid in Extractant Phase, wt % AA [1, 4] | Separation Factor, S AA/3HP [1, 4] | Partition Coefficient, D 3HP [1, 3] | Partition Coefficient, D AA [1, 3] | Partition Coefficient, D 3HP [1, 4] | Partition Coefficient, D AA [1, 4] | also measured |
| --- | --- | --- | --- | --- | --- | --- | --- | --- | --- | --- | --- | --- | --- | --- | --- |
| 0.03 wt % | 77.18 | CCCCCCCCCCO [Decanol] | 1.37 wt % | 0.31 wt % | 0.47 wt % | 25.90 wt % | 5.94 wt % | 3.21 wt % | 8.20 wt % | 11.13 | – | – | – | – | – |
| 0.20 wt % | 16.55 | CCOC(C)=O [Ethyl Acetate, Ethyl acetate, reference compound] | 1.13 wt % | 0.20 wt % | 0.59 wt % | 21.16 wt % | 4.22 wt % | 8.68 wt % | 8.07 wt % | 4.66 | – | – | – | – | Acid in Aqueous Phase, wt % 3HP [1, 5]: 5.77 wt %; Acid in Aqueous Phase, wt % AA [1, 5]: 0.97 wt %; Acid in Extractant Phase, wt % 3HP [1, 5]: 1.21 wt %; Acid in Extractant Phase, wt % AA [1, 5]: 2.87 wt %; Separation Factor, S AA/3HP [1, 5]: 14.18; Acid in Aqueous Phase, wt % 3HP [1, 6]: 11.38 wt %; Acid in Aqueous Phase, wt % AA [1, 6]: 2.02 wt %; Acid in Extractant Phase, wt % 3HP [1, 6]: 3.09 wt %; Acid in Extractant Phase, wt % AA [1, 6]: 5.36 wt %; Separation Factor, S AA/3HP [1, 6]: 9.79; Acid in Aqueous Phase, wt % 3HP [1, 7]: 17.08 wt %; Acid in Aqueous Phase, wt % AA [1, 7]: 3.18 wt %; Acid in Extractant Phase, wt % 3HP [1, 7]: 5.17 wt %; Acid in Extractant Phase, wt % AA [1, 7]: 7.53 wt %; Separation Factor, S AA/3HP [1, 7]: 7.81 |
| 0.03 wt % | 108.82 | CC(=O)CC(C)C [MiBK, Methyl isobutyl ketone] | 1.32 wt % | 0.23 wt % | 0.59 wt % | 24.17 wt % | 4.11 wt % | 5.46 wt % | 9.92 wt % | 10.69 | – | – | – | – | – |
| – | – | Cc1ccccc1 [Toluene] | 1.42 wt % | 0.69 wt % | – | 26.72 wt % | 10.57 wt % | – | 2.47 wt % | – | – | – | – | – | – |
| – | – | ClCCl [CH2Cl2, Methylene chloride] | 1.39 wt % | 0.61 wt % | 0.04 wt % | 25.05 wt % | 7.84 wt % | 0.53 wt % | 3.72 wt % | 22.45 | – | 0.06 | 0.02 | 0.48 | – |
| 0.04 wt % | 40.59 | CC(C)OC(C)C [Isopropyl Ether, Isopropyl ether] | 1.30 wt % | 0.36 wt % | 0.44 wt % | 25.72 wt % | 5.92 wt % | 1.85 wt % | 9.79 wt % | 22.91 | – | – | – | – | amount of acrylic acid that remained in the flask as the aqueous solution [2]: 91%; amount of acrylic acid that was co-distilled with the extractant [2]: about 7% |

| SMILES | Acid in Extractant Phase, wt % 3HP [1, 3] | Separation Factor, S AA/3HP [1, 3] | Acid in Aqueous Phase, wt % 3HP [1, 3] | Acid in Aqueous Phase, wt % AA [1, 3] | Acid in Extractant Phase, wt % AA [1, 3] | Acid in Aqueous Phase, wt % 3HP [1, 4] | Acid in Aqueous Phase, wt % AA [1, 4] | Acid in Extractant Phase, wt % 3HP [1, 4] | Acid in Extractant Phase, wt % AA [1, 4] | Separation Factor, S AA/3HP [1, 4] | Partition Coefficient, D 3HP [1, 3] | Partition Coefficient, D AA [1, 3] | Partition Coefficient, D 3HP [1, 4] | Partition Coefficient, D AA [1, 4] | also measured |
| --- | --- | --- | --- | --- | --- | --- | --- | --- | --- | --- | --- | --- | --- | --- | --- |
| CC(=O)OC(C)C [Isopropyl Acetate, Isopropyl acetate] | 0.06 wt % | 43.36 | 1.28 wt % | 0.24 wt % | 0.52 wt % | 25.35 wt % | 4.42 wt % | 3.82 wt % | 8.95 wt % | 13.43 | 0.05 | 2.19 | 0.15 | 2.02 | – |
| C=CC(=O)OC [Methyl Acrylate, Methyl acrylate] | 0.07 wt % | 31.01 | 1.24 wt % | 0.25 wt % | 0.45 wt % | 21.57 wt % | 4.51 wt % | 6.70 wt % | 8.13 wt % | 5.80 | 0.06 | 1.82 | 0.31 | 1.80 | – |
| CCC(=O)OC [Methyl Propionate, Methyl propionate] | 0.06 wt % | 44.43 | 1.22 wt % | 0.24 wt % | 0.51 wt % | 22.63 wt % | 4.54 wt % | 5.54 wt % | 8.55 wt % | 7.69 | 0.05 | 2.13 | 0.25 | 1.88 | – |
